Measurements as given in paper PMC4620497 (Scientific Reports, 2015).

Experiments:
[1] = molecular target: T1, FLT3 (Homo sapiens, UniProt P36888); assay: KINOMEscan panel screen; type: binding; settings: read-out: Percent Control(%)
T1 construct: purchased DiscoveRx KINOMEscan (Ambit Biosciences)

[2] = molecular target: T2, WEE1 (Homo sapiens, UniProt P30291); assay: KINOMEscan panel screen; type: binding; settings: read-out: Percent Control(%)
T2 construct: purchased DiscoveRx KINOMEscan (Ambit Biosciences)

[3] = molecular target: T3, PIK3CA(H1047Y) (Homo sapiens, UniProt P42336, H1047Y); assay: KINOMEscan panel screen; type: binding; settings: read-out: Percent Control(%)
T3 construct: purchased DiscoveRx KINOMEscan (Ambit Biosciences)

[4] = molecular target: T4, AKT1 (Homo sapiens, UniProt P31749); assay: KINOMEscan panel screen; type: binding; settings: read-out: Percent Control(%)
T4 construct: purchased DiscoveRx KINOMEscan (Ambit Biosciences)

[5] = molecular target: T5, RIPK2 (Homo sapiens, UniProt O43353); assay: KINOMEscan panel screen; type: binding; settings: read-out: Percent Control(%)
T5 construct: purchased DiscoveRx KINOMEscan (Ambit Biosciences)

[6] = molecular target: T6, MET(Y1235D) (Homo sapiens, UniProt P08581, Y1235D); assay: KINOMEscan panel screen; type: binding; settings: read-out: Percent Control(%)
T6 construct: purchased DiscoveRx KINOMEscan (Ambit Biosciences)

[7] = molecular target: T7, HIPK1 (Homo sapiens, UniProt Q86Z02); assay: KINOMEscan panel screen; type: binding; settings: read-out: Percent Control(%)
T7 construct: purchased DiscoveRx KINOMEscan (Ambit Biosciences)

[8] = molecular target: T8, RSK1(Kin.Dom.2-C-terminal) (Homo sapiens, UniProt Q15418); assay: KINOMEscan panel screen; type: binding; settings: read-out: Percent Control(%)
T8 construct: RSK1(Kin.Dom.2-C-terminal); purchased DiscoveRx KINOMEscan (Ambit Biosciences)

[9] = molecular target: T9, STK16 (Homo sapiens, UniProt O75716); assay: KINOMEscan panel screen; type: binding; settings: read-out: Percent Control(%)
T9 construct: purchased DiscoveRx KINOMEscan (Ambit Biosciences)

[10] = molecular target: T10, CAMK2A (Homo sapiens, UniProt Q9UQM7); assay: KINOMEscan panel screen; type: binding; settings: read-out: Percent Control(%)
T10 construct: purchased DiscoveRx KINOMEscan (Ambit Biosciences)

[11] = molecular target: T11, HIPK2 (Homo sapiens, UniProt Q9H2X6); assay: KINOMEscan panel screen; type: binding; settings: read-out: Percent Control(%)
T11 construct: purchased DiscoveRx KINOMEscan (Ambit Biosciences)

[12] = molecular target: T12, LIMK2 (Homo sapiens, UniProt P53671); assay: KINOMEscan panel screen; type: binding; settings: read-out: Percent Control(%)
T12 construct: purchased DiscoveRx KINOMEscan (Ambit Biosciences)

[13] = molecular target: T13, FGFR4 (Homo sapiens, UniProt P22455); assay: KINOMEscan panel screen; type: binding; settings: read-out: Percent Control(%)
T13 construct: purchased DiscoveRx KINOMEscan (Ambit Biosciences)

[14] = molecular target: T14, ADCK4 (Homo sapiens, UniProt Q96D53); assay: KINOMEscan panel screen; type: binding; settings: read-out: Percent Control(%)
T14 construct: purchased DiscoveRx KINOMEscan (Ambit Biosciences)

[15] = molecular target: T15, MEK4 (Homo sapiens, UniProt P45985); assay: KINOMEscan panel screen; type: binding; settings: read-out: Percent Control(%)
T15 construct: purchased DiscoveRx KINOMEscan (Ambit Biosciences)

[16] = molecular target: T16, ERK1 (Homo sapiens, UniProt P27361); assay: KINOMEscan panel screen; type: binding; settings: read-out: Percent Control(%)
T16 construct: purchased DiscoveRx KINOMEscan (Ambit Biosciences)

[17] = system: primary AML PBMCs; assay: Long-term culture-initiating cell (LTC-IC) assay; type: cell-based, human
Experimental: (§1) In addition to the SP cell assay, we also evaluated the effects of SKLB-677 on the long-term culture-initiating (LTC-IC) cells; the long-term culture of LTC-IC cells can be used as surrogate markers of self-renewal capacity. SKLB-677 treated primary AML PBMCs or normal PBMCs were co-cultured with M2-10B4 stromal cells for 6 weeks, and then the colony formation capacity of LTC-IC cells were determined. In this assay, three primary AML PBMC samples and three normal PBMC samples were included, and each sample was conducted in triplicate.
(§2) PBMCs from AML patients (n = 3) and normal people (n = 3) were plated on M2-10B4 feeder cell layers (irradiated with 8000cGy) established in 6-well plates in HLTM medium (Myelocult H5100, […]) freshly supplemented with 10^−6 M hydrocortisone ([…]). Cultures were maintained with 0.1% DMSO or SKLB-677 for […] with weekly half-media changes, before seeding harvested cells into Colony-forming unit assays (cells were seeded in ultra-low attachment 6-well plates (Corning) in triplicate with the complete MethoCult Media ([…]) for 14 days). The assay for each sample was performed in triplicate. The colonies were counted under a microscope, and an obvious and visible cell cluster was considered a colony. The representative images were taken on an Axiovert 200 microscope with an AxiocamMRm camera with 0.30 aperture. Image acquisition software: AxioVisionRell 4.8.
(§3) Figure 4 The in vitro effects of SKLB-677 on leukemia side population (SP) cells and leukemia-initiating cells (LICs). (a) MV4-11 cells were stained with Hoechst 33342 after a treatment of SKLB-677 for 12 h. […] (b) The separated PBMCs were incubated on M2-10B4 stromal cells with SKLB-677 (1 nM and 10 nM for primary AML PBMCs, 10 nM and 50 nM for normal PBMCs) and/or 0.1% DMSO and then half medium replaced weekly for six weeks in long-term culture-initiating cells (LTC-IC) assays. Representative CAFCs (cobble stone area forming cells, the clusters of LTC-IC cells) are shown (left, black arrows).

[18] = system: normal PBMCs; assay: Long-term culture-initiating cell (LTC-IC) assay; type: cell-based, human; settings: 10 nM and 50 nM
Experimental: as §1, §2, §3

[19] = molecular target: T17, MLK1 (Homo sapiens, UniProt P80192); assay: KINOMEscan panel screen; type: binding; settings: read-out: Percent Control(%)
T17 construct: purchased DiscoveRx KINOMEscan (Ambit Biosciences)

[20] = molecular target: T18, PDGFRA (Homo sapiens, UniProt P16234); assay: KINOMEscan panel screen; type: binding; settings: read-out: Percent Control(%)
T18 construct: purchased DiscoveRx KINOMEscan (Ambit Biosciences)

[21] = molecular target: T19, PLK1 (Homo sapiens, UniProt P53350); assay: KINOMEscan panel screen; type: binding; settings: read-out: Percent Control(%)
T19 construct: purchased DiscoveRx KINOMEscan (Ambit Biosciences)

[22] = molecular target: T20, EGFR (Homo sapiens, UniProt P00533); assay: KINOMEscan panel screen; type: binding; settings: read-out: Percent Control(%)
T20 construct: purchased DiscoveRx KINOMEscan (Ambit Biosciences)

[23] = molecular target: T21, PRP4 (Homo sapiens, UniProt Q13523); assay: KINOMEscan panel screen; type: binding; settings: read-out: Percent Control(%)
T21 construct: purchased DiscoveRx KINOMEscan (Ambit Biosciences)
Experimental: (§4) In vitro KINOMEscan kinase binding assays (Ambit Biosciences) were employed to determine the binding affinity (Kd) of compounds[41][42].
(§5) Supplementary Table S3. Matrix of compound screen for SKLB -677 obtained through service provided by DiscoveRX. The compound was screened at a concentration of 10μM. Results are given in %control.
(§6) KINOMEscan Gene Symbol Entrez Gene Percent Compound
(§7) Symbol Control(%) Concentration (μM) […]

[24] = molecular target: T22, CDC2L5 (Homo sapiens, UniProt Q14004); assay: KINOMEscan panel screen; type: binding; settings: read-out: Percent Control(%)
T22 construct: purchased DiscoveRx KINOMEscan (Ambit Biosciences)
Experimental: as §4, §5, §6, §7

[25] = molecular target: T23, EGFR(L858R) (Homo sapiens, UniProt P00533, L858R); assay: KINOMEscan panel screen; type: binding; settings: read-out: Percent Control(%)
T23 construct: purchased DiscoveRx KINOMEscan (Ambit Biosciences)

[26] = molecular target: T24, RSK1(Kin.Dom.1-N-terminal) (Homo sapiens, UniProt Q15418); assay: KINOMEscan panel screen; type: binding; settings: read-out: Percent Control(%)
T24 construct: RSK1(Kin.Dom.1-N-terminal); purchased DiscoveRx KINOMEscan (Ambit Biosciences)

[27] = molecular target: T25, PRKD3 (Homo sapiens, UniProt O94806); assay: KINOMEscan panel screen; type: binding; settings: read-out: Percent Control(%)
T25 construct: purchased DiscoveRx KINOMEscan (Ambit Biosciences)

T23 sequence (P00533 25-1210 L858R): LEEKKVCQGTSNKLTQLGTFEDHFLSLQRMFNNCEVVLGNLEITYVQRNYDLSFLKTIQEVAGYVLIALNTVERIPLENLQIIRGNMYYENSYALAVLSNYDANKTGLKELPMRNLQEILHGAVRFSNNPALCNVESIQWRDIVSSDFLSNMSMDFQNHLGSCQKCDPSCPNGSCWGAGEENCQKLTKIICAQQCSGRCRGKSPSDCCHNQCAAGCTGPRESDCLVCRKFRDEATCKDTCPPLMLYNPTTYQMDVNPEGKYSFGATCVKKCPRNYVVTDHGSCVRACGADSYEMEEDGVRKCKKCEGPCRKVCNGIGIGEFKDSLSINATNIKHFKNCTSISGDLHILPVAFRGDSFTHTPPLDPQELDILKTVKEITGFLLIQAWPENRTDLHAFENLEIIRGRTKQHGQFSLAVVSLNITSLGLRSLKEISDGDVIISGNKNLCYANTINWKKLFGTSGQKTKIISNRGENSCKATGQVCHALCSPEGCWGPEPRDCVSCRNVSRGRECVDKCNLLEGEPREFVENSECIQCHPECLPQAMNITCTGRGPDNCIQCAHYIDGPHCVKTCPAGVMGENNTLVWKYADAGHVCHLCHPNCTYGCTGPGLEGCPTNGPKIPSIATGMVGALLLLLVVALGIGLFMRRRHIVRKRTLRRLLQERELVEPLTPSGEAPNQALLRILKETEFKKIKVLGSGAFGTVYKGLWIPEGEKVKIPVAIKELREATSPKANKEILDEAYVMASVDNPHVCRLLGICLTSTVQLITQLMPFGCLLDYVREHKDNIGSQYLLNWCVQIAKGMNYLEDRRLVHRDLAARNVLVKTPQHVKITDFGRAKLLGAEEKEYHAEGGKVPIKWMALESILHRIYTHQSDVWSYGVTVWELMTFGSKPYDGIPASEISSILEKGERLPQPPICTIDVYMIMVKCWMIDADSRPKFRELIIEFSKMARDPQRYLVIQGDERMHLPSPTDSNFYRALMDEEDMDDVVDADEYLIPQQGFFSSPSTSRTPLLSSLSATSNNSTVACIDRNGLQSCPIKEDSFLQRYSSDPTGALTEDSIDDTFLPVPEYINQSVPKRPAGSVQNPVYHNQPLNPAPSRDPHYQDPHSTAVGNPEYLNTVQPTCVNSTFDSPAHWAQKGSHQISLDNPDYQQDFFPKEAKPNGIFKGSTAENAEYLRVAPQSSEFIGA
T17 sequence (P80192 whole entry): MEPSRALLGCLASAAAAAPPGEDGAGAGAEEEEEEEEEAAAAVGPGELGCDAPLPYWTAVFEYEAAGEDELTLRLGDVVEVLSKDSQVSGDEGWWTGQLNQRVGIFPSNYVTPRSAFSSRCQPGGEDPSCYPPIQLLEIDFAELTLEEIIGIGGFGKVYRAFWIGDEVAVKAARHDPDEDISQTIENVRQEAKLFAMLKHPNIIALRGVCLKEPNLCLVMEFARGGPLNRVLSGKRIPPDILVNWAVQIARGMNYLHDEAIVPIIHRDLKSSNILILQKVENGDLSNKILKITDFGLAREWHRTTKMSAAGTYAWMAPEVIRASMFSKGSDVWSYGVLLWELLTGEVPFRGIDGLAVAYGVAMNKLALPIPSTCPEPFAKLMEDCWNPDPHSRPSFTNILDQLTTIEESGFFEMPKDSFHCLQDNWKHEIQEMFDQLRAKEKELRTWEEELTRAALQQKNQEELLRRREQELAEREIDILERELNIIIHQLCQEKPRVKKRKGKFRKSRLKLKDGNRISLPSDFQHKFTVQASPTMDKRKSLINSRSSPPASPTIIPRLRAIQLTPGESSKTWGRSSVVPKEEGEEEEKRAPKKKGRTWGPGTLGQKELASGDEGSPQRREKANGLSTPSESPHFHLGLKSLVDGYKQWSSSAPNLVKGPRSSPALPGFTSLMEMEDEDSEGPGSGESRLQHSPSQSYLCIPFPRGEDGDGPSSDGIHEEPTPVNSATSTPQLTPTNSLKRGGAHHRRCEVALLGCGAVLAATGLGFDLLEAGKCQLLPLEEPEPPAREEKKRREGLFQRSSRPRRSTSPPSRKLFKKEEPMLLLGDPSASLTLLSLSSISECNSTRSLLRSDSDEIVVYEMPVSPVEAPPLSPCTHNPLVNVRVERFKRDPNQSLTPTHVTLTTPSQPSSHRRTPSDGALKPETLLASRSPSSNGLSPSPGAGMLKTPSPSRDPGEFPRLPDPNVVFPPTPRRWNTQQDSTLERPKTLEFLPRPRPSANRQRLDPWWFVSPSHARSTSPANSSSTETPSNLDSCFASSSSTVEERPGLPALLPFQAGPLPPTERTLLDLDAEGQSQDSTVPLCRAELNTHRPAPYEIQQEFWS
T11 sequence (Q9H2X6 whole entry): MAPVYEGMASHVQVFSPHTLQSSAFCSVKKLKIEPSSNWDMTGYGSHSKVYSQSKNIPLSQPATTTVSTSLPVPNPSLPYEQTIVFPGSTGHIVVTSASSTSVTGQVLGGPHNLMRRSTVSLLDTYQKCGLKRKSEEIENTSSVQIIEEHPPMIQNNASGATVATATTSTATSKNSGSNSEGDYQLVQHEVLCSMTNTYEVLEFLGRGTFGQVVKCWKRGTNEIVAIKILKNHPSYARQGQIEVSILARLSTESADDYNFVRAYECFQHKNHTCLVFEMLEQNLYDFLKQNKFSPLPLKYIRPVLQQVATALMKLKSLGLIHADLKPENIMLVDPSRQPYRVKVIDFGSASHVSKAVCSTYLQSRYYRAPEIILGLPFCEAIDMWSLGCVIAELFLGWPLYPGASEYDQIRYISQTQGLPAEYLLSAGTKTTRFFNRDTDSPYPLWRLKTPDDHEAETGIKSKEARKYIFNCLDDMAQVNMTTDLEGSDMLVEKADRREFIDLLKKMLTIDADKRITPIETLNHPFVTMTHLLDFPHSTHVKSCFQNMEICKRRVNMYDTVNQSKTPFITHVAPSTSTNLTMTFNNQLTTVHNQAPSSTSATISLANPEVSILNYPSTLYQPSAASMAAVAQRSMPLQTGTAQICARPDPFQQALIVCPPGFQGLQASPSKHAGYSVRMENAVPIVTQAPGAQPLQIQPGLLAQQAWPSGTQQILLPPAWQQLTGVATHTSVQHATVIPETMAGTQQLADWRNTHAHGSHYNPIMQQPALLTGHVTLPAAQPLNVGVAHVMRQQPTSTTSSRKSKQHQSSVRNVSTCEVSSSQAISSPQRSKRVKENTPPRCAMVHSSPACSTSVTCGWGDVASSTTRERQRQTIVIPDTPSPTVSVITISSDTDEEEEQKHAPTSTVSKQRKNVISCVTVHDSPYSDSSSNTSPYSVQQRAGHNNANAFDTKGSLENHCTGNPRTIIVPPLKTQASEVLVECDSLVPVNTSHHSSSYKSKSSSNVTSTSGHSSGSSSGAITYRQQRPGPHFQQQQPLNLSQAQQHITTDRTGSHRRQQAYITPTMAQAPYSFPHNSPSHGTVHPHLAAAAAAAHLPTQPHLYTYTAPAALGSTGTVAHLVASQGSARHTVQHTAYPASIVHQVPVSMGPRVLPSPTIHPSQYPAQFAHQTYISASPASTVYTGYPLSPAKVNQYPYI
T3 sequence (P42336 whole entry H1047Y): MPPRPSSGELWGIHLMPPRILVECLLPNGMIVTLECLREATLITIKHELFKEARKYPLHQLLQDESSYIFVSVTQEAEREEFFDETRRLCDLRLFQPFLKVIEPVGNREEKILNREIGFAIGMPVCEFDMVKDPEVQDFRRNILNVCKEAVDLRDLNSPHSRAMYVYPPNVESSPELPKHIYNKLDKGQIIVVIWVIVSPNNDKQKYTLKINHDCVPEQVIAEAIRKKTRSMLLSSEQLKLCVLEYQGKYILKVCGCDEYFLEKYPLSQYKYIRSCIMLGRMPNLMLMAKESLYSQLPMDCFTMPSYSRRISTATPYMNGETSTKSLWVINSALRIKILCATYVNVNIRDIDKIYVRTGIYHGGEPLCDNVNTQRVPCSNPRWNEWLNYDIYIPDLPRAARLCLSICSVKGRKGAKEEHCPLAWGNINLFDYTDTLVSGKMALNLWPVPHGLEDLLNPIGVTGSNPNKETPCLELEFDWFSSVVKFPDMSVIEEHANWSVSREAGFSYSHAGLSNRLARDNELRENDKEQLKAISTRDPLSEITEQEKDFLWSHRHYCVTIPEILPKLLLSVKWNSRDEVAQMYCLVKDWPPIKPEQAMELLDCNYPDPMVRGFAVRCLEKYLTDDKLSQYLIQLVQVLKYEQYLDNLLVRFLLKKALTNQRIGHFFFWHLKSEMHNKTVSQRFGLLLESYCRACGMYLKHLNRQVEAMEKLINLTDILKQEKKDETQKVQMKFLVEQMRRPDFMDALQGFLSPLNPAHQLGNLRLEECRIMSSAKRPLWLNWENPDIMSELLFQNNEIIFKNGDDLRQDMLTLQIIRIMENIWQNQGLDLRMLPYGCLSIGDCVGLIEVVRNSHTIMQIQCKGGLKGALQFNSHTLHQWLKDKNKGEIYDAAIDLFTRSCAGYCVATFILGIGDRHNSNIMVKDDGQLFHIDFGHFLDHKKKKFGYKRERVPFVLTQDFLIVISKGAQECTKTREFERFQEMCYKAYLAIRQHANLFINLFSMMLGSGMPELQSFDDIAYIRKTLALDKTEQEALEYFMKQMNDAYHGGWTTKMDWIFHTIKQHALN
T15 sequence (P45985 whole entry): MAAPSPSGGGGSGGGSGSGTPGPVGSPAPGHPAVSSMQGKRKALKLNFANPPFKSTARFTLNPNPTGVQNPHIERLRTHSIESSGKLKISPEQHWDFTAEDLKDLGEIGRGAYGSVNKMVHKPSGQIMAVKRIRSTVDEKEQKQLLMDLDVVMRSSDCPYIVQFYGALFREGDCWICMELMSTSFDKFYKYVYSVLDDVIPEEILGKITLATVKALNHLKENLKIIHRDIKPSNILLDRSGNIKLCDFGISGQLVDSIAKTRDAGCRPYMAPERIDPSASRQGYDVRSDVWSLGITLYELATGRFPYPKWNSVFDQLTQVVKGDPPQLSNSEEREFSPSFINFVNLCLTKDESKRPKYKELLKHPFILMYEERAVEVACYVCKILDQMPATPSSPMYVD

Q: Which remaining binding at 10 µM [1] does the source give for `CC(C)(C)c1cc(NC(=O)Nc2ccc(Oc3ncnc4[nH]ncc34)c(F)c2)no1` [SKLB-677, 1-(4-(1H-pyrazolo[3,4-d]pyrimidin-4-yloxy)-3-fluorophenyl)-3-(5-tert-butylisoxazol-3-yl)urea] here?
A: 2%

Q: And the remaining binding at 10 µM [2]?
A: 64%

Q: What about the remaining binding at 10 µM [3] of the same molecule?
A: 100%

Q: And the remaining binding at 10 µM [4]?
A: 100%

Q: What about the remaining binding at 10 µM [5] of the same molecule?
A: 0.75%

Q: What about the remaining binding at 10 µM [6] of the same molecule?
A: 5.4%

Q: And the remaining binding at 10 µM [7]?
A: 68%

Q: And the remaining binding at 10 µM [8]?
A: 94%

Q: And the remaining binding at 10 µM [9]?
A: 36%

Q: What about the remaining binding at 10 µM [10] of the same molecule?
A: 73%

Q: What about the remaining binding at 10 µM [11] of the same molecule?
A: 4.4%

Q: What about the remaining binding at 10 µM [12] of the same molecule?
A: 7%

Q: What about the remaining binding at 10 µM [13] of the same molecule?
A: 4.8%

Q: And the remaining binding at 10 µM [14]?
A: 100%

Q: What about the remaining binding at 10 µM [15] of the same molecule?
A: 39%

Q: And the remaining binding at 10 µM [16]?
A: 76%

Q: What about the “average LTC-IC colony numbers of three samples compared with control” value ([17]; 1 nM) of the same molecule?
A: 30%

Q: What about the “average LTC-IC colony numbers of three samples compared with control” value ([17]; 10 nM) of the same molecule?
A: 10%

Q: And the “average LTC-IC colony numbers of three normal PBMC samples” value [18]?
A: almost not changed

Q: And the remaining binding at 10 µM [19]?
A: 42%

Q: And the remaining binding at 10 µM [20]?
A: 0.25%

Q: What about the remaining binding at 10 µM [21] of the same molecule?
A: 35%

Q: What about the remaining binding at 10 µM [22] of the same molecule?
A: 29%

Q: What about the remaining binding at 10 µM [23] of the same molecule?
A: 73%

Q: And the remaining binding at 10 µM [24]?
A: 0.6%

Q: What about the remaining binding at 10 µM [25] of the same molecule?
A: 29%

Q: And the remaining binding at 10 µM [26]?
A: 100%

Q: What about the remaining binding at 10 µM [27] of the same molecule?
A: 100%
